Where a name gives a salt, the structure may show the parent alone.
How the values were obtained:
[1] = biological target: T1, human chemokine receptor CCR-3 (Homo sapiens, UniProt P51677); experiment: CCR-3 receptor binding assay (SPA) with 125Jodine-eotaxin-1; conditions: membranes of hCCR-3 transfected K562 cells, radioligand 125J rhEotaxin, 2 hours incubation; read-out: Binding constants Ki (Eotaxin at CCR-3-Rezeptor)
T1 construct: expressed in transfected cells; host or cells: K562 cell line (membranes)
T1 sequence (P51677 1-355): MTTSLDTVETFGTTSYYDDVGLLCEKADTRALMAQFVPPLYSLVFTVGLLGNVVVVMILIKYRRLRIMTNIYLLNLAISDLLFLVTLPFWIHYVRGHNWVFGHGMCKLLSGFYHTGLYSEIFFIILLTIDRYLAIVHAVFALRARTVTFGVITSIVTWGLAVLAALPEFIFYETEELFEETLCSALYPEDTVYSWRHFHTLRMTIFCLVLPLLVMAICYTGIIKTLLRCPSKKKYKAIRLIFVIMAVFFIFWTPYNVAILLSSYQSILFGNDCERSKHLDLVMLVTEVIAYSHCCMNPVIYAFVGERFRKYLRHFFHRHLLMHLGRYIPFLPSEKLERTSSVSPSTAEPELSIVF
Method: The CCR-3 receptor binding test is based on a K562 cell line (leukemia myelogenic blast cells) transfected with the human chemokine receptor CCR-3 (hCCR-3-Cl). The cell membranes were prepared by disrupting the hCCR-3 transfected K562 cells by nitrogen […] and centrifugation at 40000 g, 4° C. for 1 h. The membranes were re-suspended in the SPA incubation buffer without bovine serum albumin for storage in aliquots at −80° C.
The CCR-3 receptor binding assay with the radioligand ^125Jodine-eotaxin-1 was performed in a Scintillation Proximity Assay (SPA) design. Cell membranes of hCCR-3 Cl cells were diluted in suitable concentrations (0.5–5 ug protein/well) in 96 well microtiter plates (1450–401, Wallac).
The test incubation mixture comprising 60 μl of the membrane suspension, 80 μl of the Wheat Germ Agglutinin coated PVT beads (organic scintillator, Amersham Pharmacia biotech) in a concentration of 0,4 mg and 40 μl of radiolabelled ^125J rhEotaxin (Amersham, IM290) were incubated with 20 μl of the test compound (dissolved in DMSO dilutions) for 2 hours. […] Bound radioactivity was determined by scintillation counter (Micro Beta “Trilux”, Wallac).
Determination of affinity of test compounds (dissociation constant Ki) was calculated by iterative fitting of experimental data using the law of mass action based program “easy sys” (Schittkowski, Num Math 68, 129–142 (1994)).

| melting point [°C] | Ki [1] [nM] | Structure (SMILES) |
| --- | --- | --- |
| 208 to 209 | – | Fc1ccc(SCCCN2CCC(n3c(C(F)(F)C(F)(F)F)nc4cc(F)ccc43)CC2)cc1 (as salt: hydrochloride) [Example 6, 2-Pentafluoroethyl-5-fluoro-1-{1-[3-(4-fluoro-phenylsulfanyl)-propyl]-piperidin-4-yl}-1H-benzoimidazole] |
| – | 19 | Fc1ccc(SCCCN2CCC(n3c(CC(F)(F)F)nc4cc(F)ccc43)CC2)cc1 [Example 10, 2-(2,2,2-Trifluoroethyl)-5-fluoro-1-{1-[3-(4-fluoro-phenylsulfanyl)-propyl]-piperidin-4-yl}-1H-benzoimidazole] |
| 158 to 160 | – | Fc1ccc(SCCCN2CCC(n3c(CC(F)(F)F)nc4cc(F)ccc43)CC2)cc1 (as salt: hydrochloride) [Example 10, 2-(2,2,2-Trifluoroethyl)-5-fluoro-1-{1-[3-(4-fluoro-phenylsulfanyl)-propyl]-piperidin-4-yl}-1H-benzoimidazole] |
| – | 110 | Fc1ccc(SCCCN2CCC(n3c(C(F)(F)C(F)(F)F)nc4cc(F)ccc43)CC2)cc1 [Example 6, 2-Pentafluoroethyl-5-fluoro-1-{1-[3-(4-fluoro-phenylsulfanyl)-propyl]-piperidin-4-yl}-1H-benzoimidazole] |
